Reference: ChEMBL document CHEMBL1201862, “PubChem BioAssay data set” (2004)
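Cells were grown in 96-well plates and exposed to each compound for 48 hours at five concentrations; endpoints were interpolated linearly between bracketing concentrations, or set to the highest concentration if not reached. GI50 is the concentration that inhibits growth by half.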 Activity calls are given as the source filed them. Rule as the data show it: active = GI50 up to about 1.1 µM and inactive = higher.

What was measured:
Experiment in all cases: DTP human tumour cell line panel, 48 h
SK-MEL-28 = system: SK-MEL-28
UACC-62 = system: UACC-62
786-0 = system: 786-0
K562 = system: K562
COLO 205 = system: COLO 205
HOP-62 = system: HOP-62
SK-MEL-2 = system: SK-MEL-2
NCI-H23 = system: NCI-H23
SF-539 = system: SF-539
NCI-H522 = system: NCI-H522
DU-145 = system: DU-145
SK-OV-3 = system: SK-OV-3
PC-3 = system: PC-3
NCI-H460 = system: NCI-H460
MDA-N = system: MDA-N
SF-295 = system: SF-295
ACHN = system: ACHN
A498 = system: A498
SK-MEL-5 = system: SK-MEL-5

SMILES | GI50 (SK-MEL-28) | GI50 (UACC-62) | GI50 (786-0) | GI50 (K562) | GI50 (COLO 205) | GI50 (HOP-62) | GI50 (SK-MEL-2) | GI50 (NCI-H23) | GI50 (SF-539) | GI50 (NCI-H522) | GI50 (DU-145) | GI50 (SK-OV-3) | GI50 (PC-3) | GI50 (NCI-H460) | GI50 (MDA-N) | GI50 (SF-295) | GI50 (ACHN) | GI50 (A498) | GI50 (SK-MEL-5)
COc1ccc2nc3ccc(OC)cc3c(S(=O)(=O)Cc3ccc([N+](=O)[O-])cc3)c2c1 | > 100 µM (inactive) | > 100 µM (inactive) | 66.4 µM (inactive) | > 100 µM (inactive) | > 100 µM (inactive) | 93.5 µM (inactive) | > 100 µM (inactive) | > 100 µM (inactive) | > 100 µM (inactive) | > 100 µM (inactive) | > 100 µM (inactive) | > 100 µM (inactive) | > 100 µM (inactive) | > 100 µM (inactive) | > 100 µM (inactive) | 61.5 µM (inactive) | > 100 µM (inactive) | > 100 µM (inactive) | –
COC(=O)C12C(=O)CC3CCC1C32C(=O)OC (stereo not drawn) | > 100 µM (inactive) | > 100 µM (inactive) | > 100 µM (inactive) | > 100 µM (inactive) | > 100 µM (inactive) | > 100 µM (inactive) | > 100 µM (inactive) | > 100 µM (inactive) | > 100 µM (inactive) | > 100 µM (inactive) | > 100 µM (inactive) | > 100 µM (inactive) | > 100 µM (inactive) | > 100 µM (inactive) | > 100 µM (inactive) | > 100 µM (inactive) | > 100 µM (inactive) | – | > 100 µM (inactive)
COc1ccc(S(=O)(=O)n2c3c(c4ccccc42)[C@@H]2[C@@H](CCCN2C(=O)C[S+]([O-])c2ccc(C)cc2)[C@H](Cl)C3)cc1 (stereo partly drawn) | > 100 µM (inactive) | > 100 µM (inactive) | > 100 µM (inactive) | > 100 µM (inactive) | > 100 µM (inactive) | > 100 µM (inactive) | > 100 µM (inactive) | > 100 µM (inactive) | > 100 µM (inactive) | > 100 µM (inactive) | > 100 µM (inactive) | > 100 µM (inactive) | > 100 µM (inactive) | > 100 µM (inactive) | > 100 µM (inactive) | > 100 µM (inactive) | – | > 100 µM (inactive) | > 100 µM (inactive)
CC(CO)CCNc1ncnc2c1ncn2CCC#N (stereo not drawn) | > 100 µM (inactive) | > 100 µM (inactive) | > 100 µM (inactive) | > 100 µM (inactive) | > 100 µM (inactive) | > 100 µM (inactive) | – | > 100 µM (inactive) | > 100 µM (inactive) | > 100 µM (inactive) | > 100 µM (inactive) | > 100 µM (inactive) | > 100 µM (inactive) | > 100 µM (inactive) | > 100 µM (inactive) | > 100 µM (inactive) | > 100 µM (inactive) | > 100 µM (inactive) | > 100 µM (inactive)
COc1cc2c(cc1OC)CC(N=[N+]=[N-])c1cc(OC)c(OC)cc1/C=C\2 (stereo not drawn) | 89.1 µM (inactive) | 30 µM (inactive) | 34.1 µM (inactive) | 27.2 µM (inactive) | 37.4 µM (inactive) | 77.6 µM (inactive) | 39.5 µM (inactive) | – | 39.9 µM (inactive) | 50.9 µM (inactive) | > 100 µM (inactive) | 38.5 µM (inactive) | 30.8 µM (inactive) | 43.4 µM (inactive) | 5.75 µM (inactive) | 31.8 µM (inactive) | 59 µM (inactive) | > 100 µM (inactive) | 23.8 µM (inactive)
CC(C)(C)C(=O)C(N)C(=O)C(C)(C)C | > 100 µM (inactive) | > 100 µM (inactive) | > 100 µM (inactive) | > 100 µM (inactive) | > 100 µM (inactive) | > 100 µM (inactive) | > 100 µM (inactive) | – | > 100 µM (inactive) | > 100 µM (inactive) | > 100 µM (inactive) | > 100 µM (inactive) | > 100 µM (inactive) | > 100 µM (inactive) | > 100 µM (inactive) | > 100 µM (inactive) | > 100 µM (inactive) | – | > 100 µM (inactive)
Nc1cc(N)c(/N=N/c2cccc3c(S(=O)(=O)O)cccc23)cc1/N=N/c1cc([N+](=O)[O-])ccc1O | – | 22.3 µM (inactive) | 42.1 µM (inactive) | 38.7 µM (inactive) | 38.5 µM (inactive) | 29.9 µM (inactive) | 22.4 µM (inactive) | 45 µM (inactive) | 38 µM (inactive) | 17.5 µM (inactive) | 30.3 µM (inactive) | 59.7 µM (inactive) | 18.5 µM (inactive) | 29.1 µM (inactive) | 46.9 µM (inactive) | 32.2 µM (inactive) | 22.2 µM (inactive) | 27 µM (inactive) | 17.6 µM (inactive)
COc1cc2c(cc1OC)C(=O)/C(=C/c1cc(Cl)cc(Cl)c1)C2 | 61.7 µM (inactive) | 3.39 µM (inactive) | 4.73 µM (inactive) | 0.859 µM (active) | 6.21 µM (inactive) | 9.35 µM (inactive) | 23.5 µM (inactive) | 7.66 µM (inactive) | 2.49 µM (inactive) | 2.04 µM (inactive) | 10.6 µM (inactive) | – | 4.03 µM (inactive) | 4.73 µM (inactive) | 1.57 µM (inactive) | 2.49 µM (inactive) | 7.91 µM (inactive) | 17 µM (inactive) | 2.54 µM (inactive)
